# Source: ChEMBL document CHEMBL1131216, “Anhydrolide macrolides. 2. Synthesis and antibacterial activity of 2,3-anhydro-6-O-methyl 11,12-carbazate erythromycin A analogues” (1998)
# Legend:
# Format in all cases: functional
# Streptococcus pneumoniae [1] = assay: In vitro antibacterial activity of 5649 strain of Gram positive bacteria Streptococcus pneumoniae
# Streptococcus pyogenes [2] = assay: In vitro antibacterial activity of EES61 strain of Gram positive bacteria Streptococcus pyogenes
# Staphylococcus aureus [3] = assay: In vitro antibacterial activity of A5177 strain of Gram positive bacteria Staphylococcus aureus
# Staphylococcus aureus [4] = assay: In vitro antibacterial activity of 6538P strain of Gram positive bacteria Staphylococcus aureus
# Streptococcus pneumoniae [5] = assay: In vitro antibacterial activity of 5979 strain of Gram positive bacteria Streptococcus pneumoniae
# Streptococcus pyogenes [6] = assay: In vitro antibacterial activity of PIU2584 strain of Gram positive bacteria Streptococcus pyogenes
# Haemophilus influenzae = assay: In vitro antibacterial activity of DILL strain of Gram negative bacteria Haemophilus influenzae
# Staphylococcus aureus [7] = assay: In vitro antibacterial activity of A-5278 strain of Gram positive bacteria Staphylococcus aureus
# Streptococcus pyogenes [8] = assay: In vitro antibacterial activity of 930 strain of Gram positive bacteria Streptococcus pyogenes
# Streptococcus pneumoniae [9] = assay: In vitro antibacterial activity of ATCC 6303 strain of Gram positive bacteria Streptococcus pneumoniae
SMILES,MIC (Streptococcus pneumoniae [1]),MIC (Streptococcus pyogenes [2]),MIC (Staphylococcus aureus [3]),MIC (Staphylococcus aureus [4]),MIC (Streptococcus pneumoniae [5]),MIC (Streptococcus pyogenes [6]),MIC (Haemophilus influenzae),MIC (Staphylococcus aureus [7]),MIC (Streptococcus pyogenes [8]),MIC (Streptococcus pneumoniae [9])
CC[C@H]1OC(=O)/C(C)=C/[C@H](C)[C@@H](O[C@@H]2O[C@H](C)C[C@H](N(C)C)[C@H]2O)[C@@](C)(OC)C[C@@H](C)C(=O)[C@H](C)[C@H]2N(NCCCc3ccc(OC)cc3)C(=O)O[C@]12C,2 µg/mL,0.03 µg/mL,0.39 µg/mL,0.39 µg/mL,> 64 µg/mL,1 µg/mL,16 µg/mL,> 100 µg/mL,64 µg/mL,0.06 µg/mL
CC[C@H]1OC(=O)/C(C)=C/[C@H](C)[C@@H](O[C@@H]2O[C@H](C)C[C@H](N(C)C)[C@H]2O)[C@@](C)(OC)C[C@@H](C)[C@@H]2NN3C(=O)O[C@@]1(C)[C@H]3[C@H]2C,> 128 µg/mL,> 128 µg/mL,> 100 µg/mL,> 100 µg/mL,> 128 µg/mL,> 128 µg/mL,> 128 µg/mL,> 100 µg/mL,> 128 µg/mL,> 128 µg/mL
CC[C@H]1OC(=O)/C(C)=C/[C@H](C)[C@@H](O[C@@H]2O[C@H](C)C[C@H](N(C)C)[C@H]2O)[C@@](C)(OC)C[C@@H](C)C(=O)[C@H](C)[C@H]2N(NCc3ccc(O)c(O)c3)C(=O)O[C@]12C,2 µg/mL,1 µg/mL,0.78 µg/mL,0.78 µg/mL,> 128 µg/mL,16 µg/mL,32 µg/mL,> 100 µg/mL,> 128 µg/mL,1 µg/mL
CC[C@H]1OC(=O)/C(C)=C/[C@H](C)[C@@H](O[C@@H]2O[C@H](C)C[C@H](N(C)C)[C@H]2O)[C@@](C)(OC)C[C@@H](C)C(=O)[C@H](C)[C@H]2N(NCCCc3ccc(Cl)cc3)C(=O)O[C@]12C,1 µg/mL,0.125 µg/mL,0.05 µg/mL,0.1 µg/mL,16 µg/mL,1 µg/mL,16 µg/mL,25 µg/mL,16 µg/mL,0.03 µg/mL
CC[C@H]1OC(=O)/C(C)=C/[C@H](C)[C@@H](O[C@@H]2O[C@H](C)C[C@H](N(C)C)[C@H]2O)[C@@](C)(OC)C[C@@H](C)C(=O)[C@H](C)[C@H]2N(NCCCc3cccc(O)c3)C(=O)O[C@]12C,0.5 µg/mL,0.06 µg/mL,0.1 µg/mL,0.1 µg/mL,> 128 µg/mL,1 µg/mL,4 µg/mL,> 100 µg/mL,128 µg/mL,0.03 µg/mL
CC[C@H]1OC(=O)/C(C)=C/[C@H](C)[C@@H](O[C@@H]2O[C@H](C)C[C@H](N(C)C)[C@H]2O)[C@@](C)(OC)C[C@@H](C)C(=O)[C@H](C)[C@H]2N(N)C(=O)O[C@]12C,1 µg/mL,0.25 µg/mL,1.56 µg/mL,1.56 µg/mL,> 64 µg/mL,1 µg/mL,32 µg/mL,> 100 µg/mL,> 64 µg/mL,0.25 µg/mL
CC[C@H]1OC(=O)/C(C)=C/[C@H](C)[C@@H](O[C@@H]2O[C@H](C)C[C@H](N(C)C)[C@H]2O)[C@@](C)(OC)C[C@@H](C)C(=O)[C@H](C)[C@H]2N(NCc3ccc(N)cc3)C(=O)O[C@]12C,1 µg/mL,0.06 µg/mL,0.78 µg/mL,0.78 µg/mL,> 128 µg/mL,1 µg/mL,16 µg/mL,> 100 µg/mL,> 128 µg/mL,0.25 µg/mL
CC[C@H]1OC(=O)/C(C)=C/[C@H](C)[C@@H](O[C@@H]2O[C@H](C)C[C@H](N(C)C)[C@H]2O)[C@@](C)(OC)C[C@@H](C)C(=O)[C@H](C)[C@H]2N(NCCCc3ccc([N+](=O)[O-])cc3)C(=O)O[C@]12C,1 µg/mL,0.03 µg/mL,0.1 µg/mL,0.1 µg/mL,64 µg/mL,1 µg/mL,8 µg/mL,> 100 µg/mL,64 µg/mL,0.03 µg/mL
CC[C@H]1OC(=O)/C(C)=C/[C@H](C)[C@@H](O[C@@H]2O[C@H](C)C[C@H](N(C)C)[C@H]2O)[C@@](C)(OC)C[C@@H](C)C(=O)[C@@H](C)[C@H]2N(N)C(=O)O[C@]12C,16 µg/mL,8 µg/mL,50 µg/mL,50 µg/mL,> 128 µg/mL,32 µg/mL,> 128 µg/mL,> 100 µg/mL,> 128 µg/mL,8 µg/mL
CC[C@H]1OC(=O)/C(C)=C/[C@H](C)[C@@H](O[C@@H]2O[C@H](C)C[C@H](N(C)C)[C@H]2O)[C@@](C)(OC)C[C@@H](C)C(=O)[C@H](C)[C@H]2N(NCCCc3ccccc3Cl)C(=O)O[C@]12C,1 µg/mL,0.03 µg/mL,0.2 µg/mL,0.2 µg/mL,32 µg/mL,1 µg/mL,16 µg/mL,50 µg/mL,16 µg/mL,0.125 µg/mL
CC[C@H]1OC(=O)/C(C)=C/[C@H](C)[C@@H](O[C@@H]2O[C@H](C)C[C@H](N(C)C)[C@H]2O)[C@@](C)(OC)C[C@@H](C)C(=O)[C@H](C)[C@H]2N(NCc3ccc(N(C)C)c4ccccc34)C(=O)O[C@]12C,2 µg/mL,0.25 µg/mL,3.1 µg/mL,3.1 µg/mL,32 µg/mL,2 µg/mL,16 µg/mL,100 µg/mL,16 µg/mL,0.5 µg/mL
CC[C@H]1OC(=O)/C(C)=C/[C@H](C)[C@@H](O[C@@H]2O[C@H](C)C[C@H](N(C)C)[C@H]2O)[C@@](C)(OC)C[C@@H](C)C(=O)[C@H](C)[C@H]2N(NC/C=C/c3ccc(NC(C)=O)cc3)C(=O)O[C@]12C,1 µg/mL,0.06 µg/mL,0.2 µg/mL,0.2 µg/mL,> 64 µg/mL,1 µg/mL,4 µg/mL,> 100 µg/mL,> 64 µg/mL,0.03 µg/mL
CC[C@H]1OC(=O)/C(C)=C/[C@H](C)[C@@H](O[C@@H]2O[C@H](C)C[C@H](N(C)C)[C@H]2O)[C@@](C)(OC)C[C@@H](C)C(=O)[C@H](C)[C@H]2N(NCCCc3ccc(NC(C)=O)cc3)C(=O)O[C@]12C,2 µg/mL,0.06 µg/mL,0.39 µg/mL,0.39 µg/mL,> 128 µg/mL,2 µg/mL,8 µg/mL,> 100 µg/mL,> 128 µg/mL,0.06 µg/mL
CC[C@H]1OC(=O)/C(C)=C/[C@H](C)[C@@H](O[C@@H]2O[C@H](C)C[C@H](N(C)C)[C@H]2O)[C@@](C)(OC)C[C@@H](C)C(=O)[C@H](C)[C@H]2N(NC/C=C/c3cccc4ccccc34)C(=O)O[C@]12C,1 µg/mL,0.125 µg/mL,0.39 µg/mL,0.39 µg/mL,16 µg/mL,1 µg/mL,16 µg/mL,25 µg/mL,8 µg/mL,0.125 µg/mL
CC[C@H]1OC(=O)/C(C)=C/[C@H](C)[C@@H](O[C@@H]2O[C@H](C)C[C@H](N(C)C)[C@H]2O)[C@@](C)(OC)C[C@@H](C)C(=O)[C@H](C)[C@H]2N(NCc3ccc(NC(C)=O)cc3)C(=O)O[C@]12C,1 µg/mL,0.03 µg/mL,0.78 µg/mL,0.78 µg/mL,> 64 µg/mL,2 µg/mL,4 µg/mL,> 100 µg/mL,> 64 µg/mL,0.125 µg/mL
